This note sets out measurements from patent US4210749A, “Substituted 1,2,4,5-tetrahydro-3H,3 benzazepines” (priority 1979, dated 1980).

In data set [1] the test system is isolated segments of guinea pig ileum (histamine). Kind of data set: Antihistaminic activity: block of histamine in isolated segments of guinea pig ileum.
The test system of data set [2] is isolated segments of guinea pig ileum (acetylcholine). Briefly: Anticholinergic activity: block of acetylcholine in isolated segments of guinea pig ileum.
In the next data set the test system is sciatic block. Kind of data set: Local anesthetic sciatic block, Table IV. Format: in vivo. The conditions noted are these: 1%.
The subject of the next data set is morphine analgesia. The format is in vivo, rat. The settings on record: for Narcotic antagonist potency relative to pentazocine: Table II.
A short description of data set [3]: I.P. symptomatology (highest tolerated dose, median lethal dose), Table IV. Format: in vivo. The conditions noted are these: in vivo, ip; for MTD: read-out: HTD (highest tolerated dose).
Data set [4] can be described thus: Narcotic antagonism I.P., Table IV. Format: in vivo.
Data set [5] in a line: Mouse tail stimulation (MST), Table IV. The format is in vivo. Details: unit not given here. The settings on record: S.C.
The nature of data set [6]: Analgesic activity, writhing method. The format is in vivo.
The nature of data set [7]: in vivo.
Data set [8] is described as follows: in vivo. This is another data set of the same source.
Data set [9] in a line: Analgesic activity, hot plate method. Format: in vivo.
Data set [10] is described as follows: Analgesic activity in hot plate and writhing tests, overall comparison. The settings on record: for Analgesic efficacy by route of administration: oral vs parenteral.
Data set [11] has as its system phenylbenzoquinone writhing. Briefly: Phenylbenzoquinone (PBQ) writhing analgesia, Table IV. The format is in vivo. The conditions noted are these: sc; S.C.; marked * Median effective dose.

Structures are written as SMILES. Counter-ions that a name gives are not always drawn.

Take `COc1ccc2c(c1)CCN(C(C)Cc1ccccc1)CC2` (racemic) [Example 26, 7-Methoxy-3-(1-methyl-2-phenylethyl)-1,2,4,5-tetrahydro-3H,3-benzazepine]: in data set [1], the “Conc. for 50% block of Histamine” value was determined as 54 μg/20 ml. Further, the “Conc. for 50% block of Acetylcholine” value in [2] was found to be 94 μg/20 ml.
For `CN1[C@@H]2CC[C@H]1C[C@@H](OC(=O)C(CO)c1ccccc1)C2` (some centres unmarked) [Atropine, reference compound], the “Conc. for 50% block of Histamine” value in [1] worked out at 37 μg/20 ml. The “Conc. for 50% block of Acetylcholine” value in [2] came to 0.0035 μg/20 ml.
For `CC(C)=CCN1CCc2ccc(O)cc2CC1` [Example 4, 3-(3,3-Dimethylallyl)-7-hydroxy-1,2,4,5-tetrahydro-3H,3-benzazepine], the “Local Anesthetic Sciatic Block” value in the data set with sciatic block is given as “Positive”. The “Narcotic antagonist potency relative to pentazocine” value in the data set with morphine analgesia was “more potent antagonist than pentazocine”. Moreover, in data set [3], the 50% lethal dose (LD50) was found to be 96 mg/kg and the MTD came out at 30 mg/kg. Also, the “Conc. for 50% block of Histamine” value in data set [1] was determined as 76 μg/20 ml. The “Narcotic Antagonism” value in [4] was “Positive”. The “Conc. for 50% block of Acetylcholine” value in [2] is on record as 120 μg/20 ml. Further, the “MST (mouse tail stimulation)” value in data set [5] was more than 56.
Take `COc1ccc2c(c1)CCN(CC1CC1)CC2` [Example 7, 3-Cyclopropylmethyl-7-methoxy-1,2,4,5-tetrahydro-3H,3-benzazepine]: the “Local Anesthetic Sciatic Block” value in the data set with sciatic block was “Positive”. Besides, in data set [3], the LD50 is 100 mg/kg and the MTD was determined as 40 mg/kg. In addition, in data set [1], the “Conc. for 50% block of Histamine” value was determined as 20 μg/20 ml. Also, the “Narcotic Antagonism” value in data set [4] is given as “Negative”. Further, the “Conc. for 50% block of Acetylcholine” value in [2] was 220 μg/20 ml.
Regarding `C=CCN1CCc2ccc(OC)cc2CC1` [Example 14, 3-Allyl-7-methoxy-1,2,4,5-tetrahydro-3H,3-benzazepine], the ED50 in data set [6] (po) is more than 178 mg/kg; in data set [6] (sc) it was more than 56 mg/kg; in data set [9] (ip), 42 mg/kg; in data set [9] (po) it was more than 178 mg/kg. For the same compound, the figures for the 50% lethal dose (LD50) (in the data set “in vivo [7]” (po); in data set [3]) were more than 1000 mg/kg and 80 mg/kg, respectively. In addition, in the data set with sciatic block, the “Local Anesthetic Sciatic Block” value was “Positive”. The “Narcotic antagonist potency relative to pentazocine” value in the data set with morphine analgesia was “about equipotent to pentazocine”. For the same compound, the MTD in data set [3] was 60 mg/kg. In “in vivo [8]” (po), this compound gave an NOAEL of 178 mg/kg. In data set [4], the “Narcotic Antagonism” value is recorded as “Positive”.
`COc1ccc2c(c1)CCN(C)CC2` [Example 18, 7-Methoxy-3-methyl-1,2,4,5-tetrahydro-3H,3-benzazepine]: the ED50 in [6] (po) is more than 180 mg/kg; in data set [6] (sc), more than 32 mg/kg; in [9] (ip) it was 20 mg/kg; in [9] (po), 140 mg/kg. In data set [3], the LD50 came out at 80 mg/kg. In addition, the MTD in data set [3] stood at 25 mg/kg. Besides, the “Analgesic efficacy by route of administration” value (“Analgesic efficacy by route” for short) in [10] was “active by the oral route”. Further, the “Narcotic Antagonism” value in [4] was “Negative”.
As to `CCCN1CCc2ccc(O)cc2CC1` [Example 23, 7-Hydroxy-3-n-propyl-1,2,4,5-tetrahydro-3H,3-benzazepine], the “Local Anesthetic Sciatic Block” value with sciatic block is listed as “Positive”. For the same compound, in data set [3], the LD50 amounted to 50 mg/kg and the MTD was determined as 20 mg/kg. In [1], the “Conc. for 50% block of Histamine” value was 75 μg/20 ml. In addition, in data set [4], the “Narcotic Antagonism” value was “Positive”. In data set [2], the “Conc. for 50% block of Acetylcholine” value is reported as more than 1000 μg/20 ml.
Turning to `COc1ccc2c(c1)CCN(CCc1ccccc1)CC2` [Example 24, 7-Methoxy-3-phenethyl-1,2,4,5-tetrahydro-3H,3-benzazepine], the ED50 in data set [6] (po) is more than 178 mg/kg; in data set [6] (sc) it was approximately 11 mg/kg; in data set [9] (ip), 12 mg/kg; in [9] (po), more than 178 mg/kg. The LD50 in “in vivo [7]” (po) is more than 1000 mg/kg; in [3], more than 200 mg/kg. Further, the “Local Anesthetic Sciatic Block” value with sciatic block was “Positive”. Moreover, in the data set with morphine analgesia, the “Narcotic antagonist potency relative to pentazocine” value is given as “about equipotent to pentazocine”. Further, in data set [3], the MTD was more than 50 mg/kg. Also, the Analgesic activity ranking entry in data set [10] is reported as “most active compounds”. Moreover, the “Separation between effective dose and toxic or lethal doses” value in data set [10] was “greatest separation between effective dose and toxic or lethal doses”. This compound registered an NOAEL in the data set “in vivo [8]” (po) of 178 mg/kg. Moreover, the “Conc. for 50% block of Histamine” value in data set [1] is recorded as 10 μg/20 ml. For the same compound, the “Conc. for 50% block of Acetylcholine” value in data set [2] is on record as 74 μg/20 ml.
Regarding `COc1ccc2c(c1)CCN(CC=Cc1ccccc1)CC2` [Example 28, 7-Methoxy-3-(3-phenylallyl)-1,2,4,5-tetrahydro-3H,3-benzazepine], the 50% effective dose (ED50) is 120 mg/kg in data set [6] (po), more than 18 mg/kg in data set [6] (sc), more than 18 mg/kg in data set [9] (ip) and 125 mg/kg in data set [9] (po). The “Narcotic antagonist potency relative to pentazocine” value in the data set on morphine analgesia is “about equipotent to pentazocine”. Also, the LD50 in [3] was 60 mg/kg. Besides, in data set [3], the MTD stood at 20 mg/kg. Besides, the “Analgesic efficacy by route” value in data set [10] is reported as “active by the oral route”. Further, in [4], the “Narcotic Antagonism” value is “Positive”. The “MST (mouse tail stimulation)” value in [5] was 10.
As for `COc1ccc2c(c1)CCN(CCN1CCN(c3ccccc3)CC1)CC2` [Example 31, 7-Methoxy-3-[2-(4-phenyl-1-piperazinyl)ethyl]-1,2,4,5-tetrahydro-3H,3-benzazepine], the ED50 in [6] (po) is more than 100 mg/kg; in data set [9] (ip), approximately 8 mg/kg; in data set [9] (po) it was approximately 80 mg/kg. Further, the LD50 in “in vivo [7]” (ip) is approximately 80 mg/kg; in “in vivo [7]” (po), approximately 300 mg/kg; in data set [3], 80 mg/kg. The “Local Anesthetic Sciatic Block” value in the data set with sciatic block is on record as “Positive”. Besides, in data set [3], the MTD was 30 mg/kg. Further, the Analgesic activity ranking result in data set [10] was “most active compounds”. Moreover, the “Separation between effective dose and toxic or lethal doses” value in data set [10] was “greatest separation between effective dose and toxic or lethal doses”. Besides, the figures for the no observed adverse effect level (NOAEL) in “in vivo [8]” (ip) and in the data set “in vivo [8]” (po) were 32 mg/kg and 100 mg/kg, respectively. Also, the “Narcotic Antagonism” value in data set [4] is listed as “Negative”. The “MST (mouse tail stimulation)” value in data set [5] stood at 20.
Take `c1ccc2c(c1)CCN(CC1CC1)CC2` [Example 37, 3-Cyclopropylmethyl-1,2,4,5-tetrahydro-3H,3-benzazepine hydrochloride]: the “Writhing test activity relative to pentazocine” value in data set [6] (oral route) was “approximately twice as active as pentazocine”. Also, the ED50 in data set [6] (po) is 49 mg/kg; in data set [6] (sc), more than 18 mg/kg; in data set [9] (ip), 12 mg/kg; in [9] (po) it was 37 mg/kg. The LD50 in [3] is 60 mg/kg. Also, the MTD in data set [3] came out at 10 mg/kg. In addition, the “Analgesic efficacy by route” value in data set [10] is “active by the oral route”. Besides, in data set [1], the “Conc. for 50% block of Histamine” value worked out at 20 μg/20 ml. The “Narcotic Antagonism” value in data set [4] was “Negative”. Besides, the “Conc. for 50% block of Acetylcholine” value in data set [2] is listed as 540 μg/20 ml. In addition, the “MST (mouse tail stimulation)” value in [5] is listed as 10.
`COc1ccc2c(c1)CC(C)N(C)CC2` (centres unmarked) [Example 39, 8-Methoxy-2,3-dimethyl-1,2,4,5-tetrahydro-3H,3-benzazepine hydrochloride] had a 50% effective dose (ED50) in data set [11] of more than 30 mg/kg. Moreover, in the data set on sciatic block, the “Local Anesthetic Sciatic Block” value was “Positive”. In data set [3], the LD50 was approximately 150 mg/kg and the MTD turned out to be 10 mg/kg. The “Narcotic Antagonism” value in data set [4] is “Negative”.
The like results for `COc1ccc2c(c1)CC(C)N(CCN1CCN(c3ccccc3)CC1)CC2` (centres unmarked) [Example 40, 8-Methoxy-2-methyl-3-[2-(4-phenyl-1-piperazinyl)-ethyl]-1,2,4,5-tetrahydro-3H,3-benzazepine dihydrochloride] were, in that order, more than 30 mg/kg, “Positive”, more than 100 mg/kg, 30 mg/kg and “Negative”.
`C=CCN1CC[C@]23c4c5ccc(O)c4O[C@H]2[C@@H](O)C=C[C@H]3[C@H]1C5` [Nalorphine, reference compound]: the “Antagonism of Morphine Analgesia, times more active than compounds listed above” value in the data set on morphine analgesia (rat, in vivo, sc) is 20-100 times.
